Laboratory results published in PubChem BioAssay AID2060890 (Molecular Pharmacology Branch, DTP, NCI, 2025).
pIC50: −log10 of the molar value. Values joined by “and” are separate entries in the source; they are usually repeats but may differ in a detail not shown here. Equal entries are not always repeated. One block for each molecule: values may come before it.

System: LG0703-F948-PDC complex spheroid viability
Test: Anticancer human tumor LG0703-F948-PDC patient-derived lung adenocarcinoma cell line growth inhibition [RAS]
Settings: for viability, T/C: stronger effect = lower value
Procedure, shortened: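 Tumour cells grown as complex spheroids with HUVEC endothelial cells and mesenchymal stem cells, treated with RAS pathway inhibitor combinations. Each agent spans half-log steps from near clinical Cmax, or 10 microM where Cmax is unknown.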

[1] = curve of first compound, second compound 0.000949 µM
[2] = curve of first compound, second compound 0.003 µM
[3] = curve of first compound, second compound 0.00949 µM
[4] = curve of first compound, second compound 0.03 µM
[5] = curve of first compound, second compound 0.0949 µM
[6] = curve of first compound, second compound 0.3 µM
[7] = second compound 0.000949 µM, first compound 0.0316 µM
[8] = second compound 0.000949 µM, first compound 0.1 µM
[9] = second compound 0.000949 µM, first compound 0.316 µM
[10] = second compound 0.000949 µM, first compound 1 µM
[11] = second compound 0.000949 µM, first compound 3.16 µM
[12] = second compound 0.000949 µM, first compound 10 µM
[13] = second compound 0.003 µM, first compound 0.0316 µM
[14] = second compound 0.003 µM, first compound 0.1 µM
[15] = second compound 0.003 µM, first compound 0.316 µM
[16] = second compound 0.003 µM, first compound 1 µM
[17] = second compound 0.003 µM, first compound 3.16 µM
[18] = second compound 0.003 µM, first compound 10 µM
[19] = second compound 0.00949 µM, first compound 0.0316 µM
[20] = second compound 0.00949 µM, first compound 0.1 µM
[21] = second compound 0.00949 µM, first compound 0.316 µM
[22] = second compound 0.00949 µM, first compound 1 µM
[23] = second compound 0.00949 µM, first compound 3.16 µM
[24] = second compound 0.00949 µM, first compound 10 µM
[25] = second compound 0.03 µM, first compound 0.0316 µM
[26] = second compound 0.03 µM, first compound 0.1 µM
[27] = second compound 0.03 µM, first compound 0.316 µM
[28] = second compound 0.03 µM, first compound 1 µM
[29] = second compound 0.03 µM, first compound 3.16 µM
[30] = second compound 0.03 µM, first compound 10 µM
[31] = second compound 0.0949 µM, first compound 0.0316 µM
[32] = second compound 0.0949 µM, first compound 0.1 µM
[33] = second compound 0.0949 µM, first compound 0.316 µM
[34] = second compound 0.0949 µM, first compound 1 µM
[35] = second compound 0.0949 µM, first compound 3.16 µM
[36] = second compound 0.0949 µM, first compound 10 µM
[37] = second compound 0.3 µM, first compound 0.0316 µM
[38] = second compound 0.3 µM, first compound 0.1 µM
[39] = second compound 0.3 µM, first compound 0.316 µM
[40] = second compound 0.3 µM, first compound 1 µM
[41] = second compound 0.3 µM, first compound 3.16 µM
[42] = second compound 0.3 µM, first compound 10 µM
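Note: spheroids exposed to agents for 7 days.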
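Throughout, for viability, T/C: 100% = DMSO vehicle wells.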

Structure (SMILES): NC1c2ccccc2OC12CCN(c1cnc3c(N4CCCc5ncccc54)n[nH]c3n1)CC2 (stereo unspecified) + CCn1c(-c2cccnc2C(C)OC)c2c3cc(ccc31)N1CCOC(CC(NC(=O)C(C(C)C)N(C)C(=O)C3(F)CCN(C(=O)C#CC(C)(C)N(C)C)CC3)C(=O)N3CCCC(N3)C(=O)OCC(C)(C)C2)C1
pIC50 [1]: 7.28
pIC50 [2]: 7.34
pIC50 [3]: 7.32
pIC50 [4]: 7.41
pIC50 [5]: > 7.50
pIC50 [6]: > 7.50
viability, T/C [7]: 55.4%
viability, T/C [8]: 43.5%
viability, T/C [9]: 22.8%
viability, T/C [10]: 12.4%
viability, T/C [11]: 4.73%
viability, T/C [12]: 2.85%
viability, T/C [13]: 57.1%
viability, T/C [14]: 35.3%
viability, T/C [15]: 21.8%
viability, T/C [16]: 10.3%
viability, T/C [17]: 6.54%
viability, T/C [18]: 2.52%
viability, T/C [19]: 59.1%
viability, T/C [20]: 33.1%
viability, T/C [21]: 20.6%
viability, T/C [22]: 8.74%
viability, T/C [23]: 5.35%
viability, T/C [24]: 2.44%
viability, T/C [25]: 53.6%
viability, T/C [26]: 33.8%
viability, T/C [27]: 18.5%
viability, T/C [28]: 10.7%
viability, T/C [29]: 4.93%
viability, T/C [30]: 1.68%
viability, T/C [31]: 42%
viability, T/C [32]: 27.2%
viability, T/C [33]: 12%
viability, T/C [34]: 5.4%
viability, T/C [35]: 2.95%
viability, T/C [36]: 1.32%
viability, T/C [37]: 25.2%
viability, T/C [38]: 10.4%
viability, T/C [39]: 7.14%
viability, T/C [40]: 2.48%
viability, T/C [41]: 2.04%
viability, T/C [42]: 1.58%

Structure (SMILES): C#Cc1c(F)ccc2cc(O)cc(-c3ncc4c(N5CC6CCC(C5)N6)nc(OCC56CCCN5CC(F)C6)nc4c3F)c12 (stereo unspecified)
viability, T/C (compound 0.1 µM): 98.8% [middle of 8 runs]
viability, T/C (compound 0.316 µM): 85.7% [middle of 8 runs]
viability, T/C (compound 3.16 µM): 61% [middle of 8 runs]
viability, T/C (compound 10 µM): 56.6% [middle of 8 runs]
pIC50 (compound alone, run of 09/09/2024): < 5.00 and 5.03

Structure (SMILES): Nc1ccn(C2OC(CO)C(O)C2(F)F)c(=O)n1 (stereo unspecified)
viability, T/C (compound 0.00316 µM): 73.4% [middle of 4 runs]
viability, T/C (compound 0.0316 µM): 38.3% [middle of 4 runs]
viability, T/C (compound 0.1 µM): 37.3% [middle of 4 runs]
viability, T/C (compound 0.316 µM): 37.3% [middle of 4 runs]
viability, T/C (compound 1 µM): 32.1% [middle of 4 runs]

The next lines start with results.

pIC50 [1]: 8.12
pIC50 [2]: 8.03
pIC50 [3]: 8.12
pIC50 [4]: 8.17
pIC50 [5]: > 8.50
pIC50 [6]: > 8.50
Structure (SMILES): Nc1ccn(C2OC(CO)C(O)C2(F)F)c(=O)n1 (stereo unspecified) + CCn1c(-c2cccnc2C(C)OC)c2c3cc(ccc31)N1CCOC(CC(NC(=O)C(C(C)C)N(C)C(=O)C3(F)CCN(C(=O)C#CC(C)(C)N(C)C)CC3)C(=O)N3CCCC(N3)C(=O)OCC(C)(C)C2)C1
viability, T/C (second compound 0.000949 µM, first compound 0.00316 µM): 79.2%
viability, T/C (second compound 0.000949 µM, first compound 0.01 µM): 40.2%
viability, T/C [7]: 36.9%
viability, T/C [8]: 32%
viability, T/C [9]: 32%
viability, T/C [10]: 30%
viability, T/C (second compound 0.003 µM, first compound 0.00316 µM): 76.2%
viability, T/C (second compound 0.003 µM, first compound 0.01 µM): 48.3%
viability, T/C [13]: 38.9%
viability, T/C [14]: 29.8%
viability, T/C [15]: 38.9%
viability, T/C [16]: 31.3%
viability, T/C (second compound 0.00949 µM, first compound 0.00316 µM): 70.7%
viability, T/C (second compound 0.00949 µM, first compound 0.01 µM): 43.2%
viability, T/C [19]: 38%
viability, T/C [20]: 36.9%
viability, T/C [21]: 43.9%
viability, T/C [22]: 30.9%
viability, T/C (second compound 0.03 µM, first compound 0.00316 µM): 66%
viability, T/C (second compound 0.03 µM, first compound 0.01 µM): 41.4%
viability, T/C [25]: 34%
viability, T/C [26]: 30%
viability, T/C [27]: 34.7%
viability, T/C [28]: 28.9%
viability, T/C (second compound 0.0949 µM, first compound 0.00316 µM): 49.3%
viability, T/C (second compound 0.0949 µM, first compound 0.01 µM): 33.2%
viability, T/C [31]: 26.7%
viability, T/C [32]: 30%
viability, T/C [33]: 27.8%
viability, T/C [34]: 22.2%
viability, T/C (second compound 0.3 µM, first compound 0.00316 µM): 31.7%
viability, T/C (second compound 0.3 µM, first compound 0.01 µM): 22.4%
viability, T/C [37]: 27.9%
viability, T/C [38]: 27.2%
viability, T/C [39]: 31.4%
viability, T/C [40]: 19.4%

pIC50 [1]: 5.34
pIC50 [2]: > 7.50
pIC50 [3]: > 7.50
pIC50 [4]: > 7.50
pIC50 [5]: > 7.50
pIC50 [6]: > 7.50
Structure (SMILES): CC1(O)CCCC1n1c(=O)c(C(F)F)cc2cnc(NC3CCN(S(C)(=O)=O)CC3)nc21 (stereo unspecified) + CCn1c(-c2cc(N3CCN(C)CC3)cnc2C(C)OC)c2c3cc(ccc31)-c1csc(n1)CC(NC(=O)C1CC1C)C(=O)N1CCCC(N1)C(=O)OCC(C)(C)C2
viability, T/C [7]: 77.1%
viability, T/C [8]: 89.8%
viability, T/C [9]: 69.7%
viability, T/C [10]: 71.1%
viability, T/C [11]: 63%
viability, T/C [12]: 28.3%
viability, T/C [13]: 52.2%
viability, T/C [14]: 48.5%
viability, T/C [15]: 46.9%
viability, T/C [16]: 52.1%
viability, T/C [17]: 46.7%
viability, T/C [18]: 18.4%
viability, T/C [19]: 27.4%
viability, T/C [20]: 31%
viability, T/C [21]: 31%
viability, T/C [22]: 29.3%
viability, T/C [23]: 33.4%
viability, T/C [24]: 13.4%
viability, T/C [25]: 16.4%
viability, T/C [26]: 18.5%
viability, T/C [27]: 15.9%
viability, T/C [28]: 19.1%
viability, T/C [29]: 19.1%
viability, T/C [30]: 7.67%
viability, T/C [31]: 11.3%
viability, T/C [32]: 14%
viability, T/C [33]: 12.9%
viability, T/C [34]: 17%
viability, T/C [35]: 21%
viability, T/C [36]: 5.97%
viability, T/C [37]: 10.2%
viability, T/C [38]: 7.6%
viability, T/C [39]: 15.7%
viability, T/C [40]: 12.1%
viability, T/C [41]: 11.2%
viability, T/C [42]: 5.22%
